Read-outs that look alike come from different tables or passages of the source.
Legend:
xxLAI strain of HIV-1 [1] = experiment: microbe, parasite or virus in culture; format: cell-based; conditions: for Fold difference in EC50, 0.1 μM MPA: control vs with 0.1 μM MPA; for Fold difference in EC50, 0.25 μM MPA: control vs with 0.25 μM MPA (fold decrease); for Fold difference in EC50, 5 μM RBV: control vs with 5 μM RBV; for Fold difference in EC50, 10 μM RBV: control vs with 10 μM RBV
Procedure: Triplicate samples of compound were tested. MT2 cells were infected with xxLAI at a multiplicity of infection (MOI) of 0.03 for 3 hours at 37° C. in 5% CO2. The infected cells were plated at 3.0×10^4/well into a 96 well plated containing drug dilutions and incubated for 5 days at 37° C. in CO2. […] This method has been modified into a susceptibility assay and has been used in a variety of in vitro antiviral tests and is readily adaptable to any system with a lytic virus (Weislow, O. S., et. al. 1989). Using the absorption values of the cell controls as 100% protection and no drug, virus infected cells as 0% protection, a dose response curve is generated by plotting % protection on the Y axis and drug concentration on the X axis. From this curve EC50 values were determined.
Assays were performed in the MT2 cell line as described above in the XXT sensitivity assay section.
MPA was tested for activity against the xxLAI strain of HIV-1 in the laboratory adapted cell line MT2. Dilutions of MPA were made in cell culture media in a 96 well plate; the highest concentration tested was 1 μM. Triplicate samples of compound were tested. MT2 cells were infected with xxLAI at a multiplicity of infection (MOI) of 0.03 for 3 hours at 37° C. in 5% CO2. The infected cells were plated at 3.0×10^4/well into a 96 well plated containing drug dilutions and incubated for 5 days at 37° C. in CO2. The antiviral activity of MPA was determined using the XTT assay described above. This method has been modified into a susceptibility assay and has been used in a variety of in vitro antiviral tests and is readily adaptable to any system with a lytic virus (Weislow, O. S., et. al. 1989). Using the absorption values of the cell controls as 100% protection and no drug, virus infected cells as 0% protection, a dose response curve is generated by plotting % protection on the Y axis and drug concentration on the X axis. From this curve EC50 values were determined.
The concentrations of MPA used were 1, 0.5, 0.25, 0.1, and 0.01 μM. Assays were performed in the MT2 cell line as described in section 3.1.

xxLAI strain of HIV-1 [2] = experiment: microbe, parasite or virus in culture; format: cell-based; conditions: for effect of addition of 0.25 μM MPA on anti-HIV activity in PBMCs / effect of addition of 20 μM RBV on anti-HIV activity in PBMCs / Fold difference in EC50, 0.1 μM MPA / Fold difference in EC50, 0.25 μM MPA / Fold difference in EC50, 5 μM RBV / Fold difference in EC50, 10 μM RBV / Fold difference in EC50, 20 μM RBV: PBMC; for effect of addition of 0.25 μM MPA on anti-HIV activity in PBMCs / effect of addition of 20 μM RBV on anti-HIV activity in PBMCs: all the concentrations tested; for Fold difference in EC50, 0.1 μM MPA: control vs with 0.1 μM MPA; for Fold difference in EC50, 0.25 μM MPA: control vs with 0.25 μM MPA; for Fold difference in EC50, 5 μM RBV: control vs with 5 μM RBV; for Fold difference in EC50, 10 μM RBV: control vs with 10 μM RBV; for Fold difference in EC50, 20 μM RBV: control vs with 20 μM RBV
Procedure: In this assay, cell supernatants were incubated on microelisa wells coated with antibodies to HIV-1 p24 core antigen. Subsequently, anti-HIV-1 conjugate labeled with horseradish peroxidase was added. The labeled antibody bound to the solid phase antibody/antigen complexes previously formed. Addition of the tetramethylbenzidine substrate results in blue color formation. The color turned yellow when the reaction is stopped. The plates were then analyzed on a plate reader set at 490 nm. The absorbance is a direct measurement of the amount of HIV-1 produced in each well and a decrease in color indicates decreased viral production. […] PBMC were obtained from HIV-1 negative donors by banding on Ficoll gradients, stimulated with phytohemaglutinin (PHAP) for 48 hours prior to infection with HIV-1, and infected with virus for 4 hours at 37° C. at a MOI of 0.001. […] Plates were incubated for 3 days at 37° C. The concentration of virus in each well was determined using the NEN p24 assay. Using the absorption values of the cell controls as 100% protection and drug free, virus infected cells as 0% protection, a dose response curve is generated by plotting percent protection on the Y axis and drug concentration on the X axis. From this curve, EC50 values were determined.
Compound dilutions and assay conditions were as described above.
MPA was also tested for activity against the xxLAI strain of HIV-1 in PBMCs using a p24 based Elisa assay. In this assay, cell supernatants are incubated on microelisa wells coated with antibodies to HIV-1 p24 core antigen. Subsequently, anti-HIV-1 conjugate labeled with horse radish peroxidase is added. The labeled antibody binds to the solid phase antibody/antigen complexes previously formed. Addition of the tetramethylbenzidine substrate results in blue color formation. The color turns yellow when the reaction is stopped. The plates are then analyzed on a plate reader set at 490 nm. The absorbance is a direct measurement of the amount of HIV-1 produced in each well and a decrease in color indicates decreased viral production. Dilutions of MPA were made in cell culture media in a 96 well plate, the highest concentration of MPA tested was 1 μM. PBMC were obtained from HIV-1 negative donors by banding on Ficoll gradients, stimulated with phytohemaglutinin (PHAP) for 48 hours prior to infection with HIV-1, and infected with virus for 4 hours at 37° C. at a MOI of 0.001. Infected cells were seeded into 96 well plates containing 4-fold serial dilutions of MPA. Plates were incubated for 3 days at 37° C. The concentration of virus in each well was determined using the NEN p24 assay. Using the absorption values of the cell controls as 100% protection and drug free, virus infected cells as 0% protection, a dose response curve is generated by plotting % protection on the Y axis and drug concentration on the X axis. From this curve EC50 values were determined.
Compound dilutions and assay conditions were as described above. The concentrations of MPA used were 1, 0.5, 0.25, 0.1, and 0.01 μM.

[3] = Human immunodeficiency virus 1, MT2, read-out: Mean EC50, Control, MT2 cells, no MPA
[4] = Human immunodeficiency virus 1, MT2, read-out: Mean EC50, Control, MT2 cells, no RBV
[5] = read-out: Mean EC50, 0.25 μM MPA, MT2 cells, with 0.25 μM MPA
[6] = read-out: Mean EC50, 5 μM RBV, MT2 cells, with 5 μM RBV
[7] = read-out: Mean EC50, 10 μM RBV, MT2 cells, with 10 μM RBV
[8] = read-out: Mean EC50, 20 μM RBV, MT2 cells, with 20 μM RBV
[9] = Human immunodeficiency virus 1, PBMC, read-out: Mean EC50, Control, PMBCs, no MPA
[10] = Human immunodeficiency virus 1, PBMC, read-out: Mean EC50, Control, PMBCs, no RBV
[11] = read-out: Mean EC50, 0.01 μM MPA, PMBCs, with 0.01 μM MPA
[12] = read-out: Mean EC50, 0.1 μM MPA, PMBCs, with 0.1 μM MPA
[13] = read-out: Mean EC50, 0.25 μM MPA, PMBCs, with 0.25 μM MPA
[14] = read-out: Mean EC50, 1 μM RBV, PMBCs, with 1 μM RBV
[15] = read-out: Mean EC50, 5 μM RBV, PMBCs, with 5 μM RBV
[16] = read-out: Mean EC50, 10 μM RBV, PMBCs, with 10 μM RBV
[17] = read-out: Mean EC50, 20 μM RBV, PMBCs, with 20 μM RBV
[18] = read-out: Mean EC50, 0.01 μM MPA, MT2 cells, with 0.01 μM MPA
[19] = read-out: Mean EC50, 0.1 μM MPA, MT2 cells, with 0.1 μM MPA

SMILES	EC50 (xxLAI strain of HIV-1 [1]; [3])	EC50 (xxLAI strain of HIV-1 [1]; [4])	Fold difference in EC50, 0.1 μM MPA (xxLAI strain of HIV-1 [1]; MT2 cells)	Fold difference in EC50, 0.25 μM MPA (xxLAI strain of HIV-1 [1]; MT2 cells)	Fold difference in EC50, 5 μM RBV (xxLAI strain of HIV-1 [1]; MT2 cells)	Fold difference in EC50, 10 μM RBV (xxLAI strain of HIV-1 [1]; MT2 cells)	EC50 (xxLAI strain of HIV-1 [1]; [5])	EC50 (xxLAI strain of HIV-1 [1]; [6])	EC50 (xxLAI strain of HIV-1 [1]; [7])	EC50 (xxLAI strain of HIV-1 [1]; [8])	EC50 (xxLAI strain of HIV-1 [2]; [9])	EC50 (xxLAI strain of HIV-1 [2]; [10])	effect of addition of 0.25 μM MPA on anti-HIV activity in PBMCs (xxLAI strain of HIV-1 [2]; with 0.25 μM MPA)	effect of addition of 20 μM RBV on anti-HIV activity in PBMCs (xxLAI strain of HIV-1 [2]; with 20 μM RBV)	Fold difference in EC50, 0.1 μM MPA (xxLAI strain of HIV-1 [2])	Fold difference in EC50, 0.25 μM MPA (xxLAI strain of HIV-1 [2])	Fold difference in EC50, 5 μM RBV (xxLAI strain of HIV-1 [2])	Fold difference in EC50, 10 μM RBV (xxLAI strain of HIV-1 [2])	EC50 (xxLAI strain of HIV-1 [2]; [11])	EC50 (xxLAI strain of HIV-1 [2]; [12])	further results
Nc1nc(NC2CC2)c2ncn([C@H]3C=C[C@@H](CO)C3)c2n1 [Abacavir]	2400 nM	4700 nM	1 fold	1.7 fold	0.68 fold	0.73 fold	1400 nM	6900 nM	6400 nM	5700 nM	1200 nM	540 nM	completely inhibited HIV replication	completely inhibited HIV replication	3.2 fold	>50 fold	4.9 fold	18 fold	1100 nM	380 nM	fold difference in the apparent EC50 on addition of RBV (xxLAI strain of HIV-1 [1]; MT2 cells, addition of RBV): less than 2 fold; Fold difference in EC50, 20 μM RBV (xxLAI strain of HIV-1 [2]): >18 fold; EC50 (xxLAI strain of HIV-1 [2]; [13]): < 0.5 nM; EC50 (xxLAI strain of HIV-1 [2]; [14]): 200 nM; EC50 (xxLAI strain of HIV-1 [2]; [15]): 110 nM; EC50 (xxLAI strain of HIV-1 [2]; [16]): 30 nM; EC50 (xxLAI strain of HIV-1 [2]; [17]): < 30 nM
Cc1cn([C@H]2C[C@H](N=[N+]=[N-])[C@@H](CO)O2)c(=O)[nH]c1=O [AZT, 3′-azido-3′-deoxy-thymidine]	420 nM	1700 nM	0.5 fold	0.44 fold	0.37 fold	0.29 fold	950 nM	4600 nM	5900 nM	> 10000 nM	3.1 nM	3 nM	little effect	little effect	1.5 fold	1.8 fold	1.2 fold	1.4 fold	2.6 nM	2.1 nM	fold increase in the apparent EC50 (xxLAI strain of HIV-1 [1]; MT2 cells, addition of 0.25 μM MPA): 2.3 fold; Fold difference in EC50, 1 μM RBV (xxLAI strain of HIV-1 [1]; MT2 cells, control vs with 1 μM RBV): 0.59 fold; Fold difference in EC50, 20 μM RBV (xxLAI strain of HIV-1 [1]; MT2 cells, control vs with 20 μM RBV (fold decrease)): <0.17 fold; EC50 (xxLAI strain of HIV-1 [1]; [18]): 300 nM; EC50 (xxLAI strain of HIV-1 [1]; [19]): 800 nM; EC50 (xxLAI strain of HIV-1 [1]; read-out: Mean EC50, 1 μM RBV, MT2 cells, with 1 μM RBV): 2900 nM; Fold difference in EC50, 20 μM RBV (xxLAI strain of HIV-1 [2]): 1.4 fold; EC50 (xxLAI strain of HIV-1 [2]; [13]): 1.7 nM; EC50 (xxLAI strain of HIV-1 [2]; [14]): 3.5 nM; EC50 (xxLAI strain of HIV-1 [2]; [15]): 2.6 nM; EC50 (xxLAI strain of HIV-1 [2]; [16]): 2.2 nM; EC50 (xxLAI strain of HIV-1 [2]; [17]): 2.1 nM
Nc1nc(=O)n([C@@H]2CS[C@H](CO)O2)cc1F [FTC]			1 fold										little effect		1.2 fold	1.8 fold			8 nM	9.3 nM	EC50 (xxLAI strain of HIV-1 [1]; MT2 cells, no MPA, read-out: Mean EC50, Control): 600 nM; EC50 (xxLAI strain of HIV-1 [1]; MT2 cells, with 0.25 μM MPA, read-out: Mean EC50, 0.25 μM MPA): 400 nM; EC50 (xxLAI strain of HIV-1 [1]; [18]): 620 nM; EC50 (xxLAI strain of HIV-1 [1]; [19]): 620 nM; EC50 (xxLAI strain of HIV-1 [2]; PMBCs, no MPA, read-out: Mean EC50, Control): 11 nM; EC50 (xxLAI strain of HIV-1 [2]; PMBCs, with 0.25 μM MPA, read-out: Mean EC50, 0.25 μM MPA): 6 nM

Reference: US20020173491A1, “DAPD combination therapy with inosine monophosphate dehydrogenase inhibitor” (priority 2000, published 2002)
